Assay results taken from US11339171B2, “MDM2 inhibitors” (Gan & Lee Pharmaceuticals, priority 2017, dated 2022).
Values joined by “and” are separate entries in the source; they are usually repeats but may differ in a detail not shown here. Equal values may be shown once. Read-outs that look alike come from different tables or passages of the source.

How the values were obtained:
[1] = molecular target: T1, MDM2 (Homo sapiens, UniProt Q00987); assay: Inhibition test of MDM2-P53 (GST-MDM2, Biotin-P53, Anti-GST-Tb, SA-XL665); assay type: binding
T1 construct: made in house
T1 sequence (Q00987 whole entry): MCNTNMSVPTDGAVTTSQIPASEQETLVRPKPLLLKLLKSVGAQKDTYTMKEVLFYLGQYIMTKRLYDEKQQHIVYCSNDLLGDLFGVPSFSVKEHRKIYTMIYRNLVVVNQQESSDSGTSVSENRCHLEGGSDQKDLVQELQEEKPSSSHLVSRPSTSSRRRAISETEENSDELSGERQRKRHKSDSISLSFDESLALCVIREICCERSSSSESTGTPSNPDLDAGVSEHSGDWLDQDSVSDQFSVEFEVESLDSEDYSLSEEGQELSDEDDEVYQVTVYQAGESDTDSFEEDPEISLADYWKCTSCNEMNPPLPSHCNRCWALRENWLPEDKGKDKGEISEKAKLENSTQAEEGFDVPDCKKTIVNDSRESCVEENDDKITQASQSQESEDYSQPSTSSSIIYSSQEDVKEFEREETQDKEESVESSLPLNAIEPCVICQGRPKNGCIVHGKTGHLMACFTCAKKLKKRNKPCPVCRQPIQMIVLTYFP
How it was run: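 Compounds, serially diluted 5-fold (twelve concentrations), were shaken for 90 min at 25° C with a mix of GST-MDM2 (4 nM final), Biotin-P53, anti-GST-Tb and SA-XL665. Buffer: 1×PBS, 0.1% BSA, 5 mM DTT, 1 mM AEBSF; signal read on a microplate reader.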

[2] = system: human osteosarcoma cell line SJSA-1; assay: Inhibition of proliferation of human osteosarcoma cell line SJSA-1 (DAPI staining, In Cell Analyzer); settings: Homo sapiens, SJSA-1, 72 h, read-out: IC50 (nM), inhibitory activity on proliferation of human osteosarcoma cell line SJSA-1, SJSA-1, incubated 72 h
[3] = Pharmacokinetics in ICR mice after intravenous and intragastric administration; assay type: in vivo; settings: for MRT last: read-out: MRT(0-t); for MRT inf: read-out: MRT(0-∞); for Tmax: read-out: Tmax; for Vd: read-out: Vz; for half-life: read-out: t1/2 (converted)
How it was run: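 Single-dose mouse PK study: i.v. 2 mg/kg and intragastric 5 mg/kg to fasted male ICR mice, three animals per arm. Exposure and disposition parameters (Cmax, Tmax, AUC, t1/2, F, CL, Vz) came from LC-MS/MS plasma levels.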

[4] = ICR mice, IV 2 mg/kg, individual animals 301-303, 2 mg/kg
[5] = ICR mice, PO 5 mg/kg, individual animals 401-403, 5 mg/kg
[6] = male, ICR, mouse, plasma, iv, 2 mg/kg, ICR mice, IV 2 mg/kg, individual animals 301-303
[7] = male, ICR, mouse, plasma, iv, 2 mg/kg, ICR mice, IV 2 mg/kg, mean of 3 animals
[8] = male, ICR, mouse, plasma, po, 5 mg/kg, ICR mice, PO 5 mg/kg, individual animals 401-403
[9] = male, ICR, mouse, plasma, po, 5 mg/kg, ICR mice, PO 5 mg/kg, mean of 3 animals

SMILES: COc1nc(N(C)C)ncc1-c1nc2c(n1C(C)C)[C@@]1(C(=O)Nc3cc(Cl)ccc31)N(c1cc(Cl)cnc1C)C2=O [Example S-135, (S)-6-chloro-5′-(5-chloro-2-methylpyridin-3-yl)-2′-(2-(dimethylamino)-4-methoxypyrimidin-5-yl)-3′-isopropyl-3′H-spiro[dihydroindole-3,4′-pyrrolo[3,4-d]imidazole]-2,6′(5′H)-dione]
- IC50 [1]: 1.36 nM
- IC50 [2]: 96.2 nM
- AUC(0-t) [3, 4]: 7341.09 ng·h/mL and 6495.01 ng·h/mL
- AUC(0-∞) [3, 4]: 7977.92 ng·h/mL and 7378.29 ng·h/mL
- CL [3, 4]: 4.18 mL/min/kg and 4.52 mL/min/kg
- Cmax [3, 4]: 3518.53 ng/mL and 3314.60 ng/mL
- MRT(0-t) [3, 4]: 1.66 h and 1.70 h
- MRT(0-∞) [3, 4]: 2.21 h and 2.57 h
- Vz [3, 4]: 0.64 L/kg and 0.80 L/kg
- t1/2 [3, 4]: 1.78 h and 2.03 h
- F* ([3]; ICR mice, PO 5 mg/kg vs IV 2 mg/kg, mean): 48.91%
- AUC(0-t) [3, 5]: 7012.03 ng·h/mL and 9412.84 ng·h/mL
- AUC(0-∞) [3, 5]: 7126.47 ng·h/mL and 9616.11 ng·h/mL
- Cmax [3, 5]: 2014.04 ng/mL and 2249.28 ng/mL
- MRT(0-t) [3, 5]: 2.19 h and 2.43 h
- MRT(0-∞) [3, 5]: 2.32 h and 2.59 h
- t1/2 [3, 5]: 1.27 h and 1.34 h
- AUC(0-inf) [3, 6]: 7840 ng·h/mL
- clearance [3, 6]: 4.25 mL/min/kg
- AUC(0-t) ([3]; male, ICR, mouse, plasma, iv, 2 mg/kg, ICR mice, IV 2 mg/kg, individual animals 301-303, read-out: AUC(0-t)): 7270 ng·h/mL
- Cmax ([3]; male, ICR, mouse, plasma, iv, 2 mg/kg, ICR mice, IV 2 mg/kg, individual animals 301-303, read-out: Cmax): 3900 ng/mL
- MRT last [3, 6]: 1.6 h
- MRT inf [3, 6]: 2.09 h
- Tmax [3, 6]: 0.08 h
- Vd [3, 6]: 0.61 L/kg
- half-life [3, 6]: 1.65 h
- AUC(0-inf) [3, 7]: 7730 ng·h/mL
- clearance [3, 7]: 4.32 mL/min/kg
- AUC(0-t) ([3]; male, ICR, mouse, plasma, iv, 2 mg/kg, ICR mice, IV 2 mg/kg, mean of 3 animals, read-out: AUC(0-t)): 7040 ng·h/mL
- Cmax ([3]; male, ICR, mouse, plasma, iv, 2 mg/kg, ICR mice, IV 2 mg/kg, mean of 3 animals, read-out: Cmax): 3580 ng/mL
- MRT last [3, 7]: 1.65 h
- MRT inf [3, 7]: 2.29 h
- Tmax [3, 7]: 0.083 h
- Vd [3, 7]: 0.68 L/kg
- half-life [3, 7]: 1.82 h
- AUC(0-inf) [3, 8]: 9970 ng·h/mL
- AUC(0-t) ([3]; male, ICR, mouse, plasma, po, 5 mg/kg, ICR mice, PO 5 mg/kg, individual animals 401-403, read-out: AUC(0-t)): 9390 ng·h/mL
- Cmax ([3]; male, ICR, mouse, plasma, po, 5 mg/kg, ICR mice, PO 5 mg/kg, individual animals 401-403, read-out: Cmax): 2160 ng/mL
- MRT last [3, 8]: 2.64 h
- MRT inf [3, 8]: 3.12 h
- Tmax [3, 8]: 1 h
- half-life [3, 8]: 1.87 h
- AUC(0-inf) [3, 9]: 8910 ng·h/mL
- AUC(0-t) ([3]; male, ICR, mouse, plasma, po, 5 mg/kg, ICR mice, PO 5 mg/kg, mean of 3 animals, read-out: AUC(0-t)): 8600 ng·h/mL
- Cmax ([3]; male, ICR, mouse, plasma, po, 5 mg/kg, ICR mice, PO 5 mg/kg, mean of 3 animals, read-out: Cmax): 2140 ng/mL
- MRT last [3, 9]: 2.42 h
- MRT inf [3, 9]: 2.67 h
- Tmax [3, 9]: 1 h
- half-life [3, 9]: 1.49 h
- AUC(0-t) ([3]; male, ICR, mouse, plasma, po, 5 mg/kg, oral intragastric administration 5 mg/kg, read-out: AUC0-t): 8600 ng·h/mL
